Data reported in ChEMBL document CHEMBL2073748, “Na(+)-dependent carnitine transport by organic cation transporter (OCTN2): its pharmacological and toxicological relevance” (J Pharmacol Exp Ther, 1999).
One block for each compound: values may come before it.

Legend:
Assay type in all cases: functional, cell-based
[1] = biological target: T1, Organic cation/carnitine transporter 2 (Homo sapiens, UniProt O76082); assay: TP_TRANSPORTER: inhibition of Carnitine uptake (Carnitine: 0.010? uM, alphaKG: 500 uM) in OCTN2-expressing HEK293 cells; conditions: hek293, 500 µM
T1 sequence (O76082 whole entry): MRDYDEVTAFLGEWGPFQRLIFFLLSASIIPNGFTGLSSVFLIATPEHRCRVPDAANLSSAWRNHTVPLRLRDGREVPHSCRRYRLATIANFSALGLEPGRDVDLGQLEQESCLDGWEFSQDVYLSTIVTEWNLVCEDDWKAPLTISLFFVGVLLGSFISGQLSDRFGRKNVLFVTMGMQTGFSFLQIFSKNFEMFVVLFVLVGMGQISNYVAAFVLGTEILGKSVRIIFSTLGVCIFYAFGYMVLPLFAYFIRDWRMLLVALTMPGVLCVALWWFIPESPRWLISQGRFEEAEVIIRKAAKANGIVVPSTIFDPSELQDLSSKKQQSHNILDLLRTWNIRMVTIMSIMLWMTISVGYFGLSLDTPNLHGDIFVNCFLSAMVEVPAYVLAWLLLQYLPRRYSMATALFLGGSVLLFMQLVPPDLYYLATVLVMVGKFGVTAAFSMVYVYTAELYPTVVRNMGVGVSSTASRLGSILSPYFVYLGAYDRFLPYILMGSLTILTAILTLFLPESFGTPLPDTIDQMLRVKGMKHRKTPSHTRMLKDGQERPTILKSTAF

[2] = biological target: T1, Organic cation/carnitine transporter 2; assay: TP_TRANSPORTER: uptake in OCTN2-expressing HEK293 cells
[3] = biological target: T1, Organic cation/carnitine transporter 2; assay: TP_TRANSPORTER: inhibition of Carnitine uptake (Carnitine: 0.010? uM, PAH: 500 uM) in OCTN2-expressing HEK293 cells; conditions: hek293, 500 µM
[4] = biological target: T1, Organic cation/carnitine transporter 2; assay: TP_TRANSPORTER: inhibition of Carnitine uptake (Carnitine: 0.010? uM, NMN: 500 uM) in OCTN2-expressing HEK293 cells; conditions: hek293, 500 µM
[5] = biological target: T1, Organic cation/carnitine transporter 2; assay: TP_TRANSPORTER: inhibition of Carnitine uptake (Carnitine: 0.010? uM, Norfloxacin: 500 uM) in OCTN2-expressing HEK293 cells; conditions: hek293, 500 µM
[6] = biological target: T1, Organic cation/carnitine transporter 2; assay: TP_TRANSPORTER: inhibition of Carnitine uptake (Carnitine: 0.010? uM, Pivalate: 500 uM) in OCTN2-expressing HEK293 cells; conditions: hek293, 500 µM
[7] = biological target: T1, Organic cation/carnitine transporter 2; assay: TP_TRANSPORTER: inhibition of Carnitine uptake (Carnitine: 0.010? uM, SPLX: 500 uM) in OCTN2-expressing HEK293 cells; conditions: hek293, 500 µM

Activity [2]: is not a substrate [-] | Activity [3]: is not an inhibitor [-]
SMILES: Nc1ccc(C(=O)NCC(=O)O)cc1 [AMINOHIPPURIC ACID]

Activity [4]: is not an inhibitor [-]
SMILES: CNC(=O)c1cccnc1 [NICOTINYL METHYLAMIDE]

Activity [6]: is not an inhibitor [-]
SMILES: CC(C)(C)C(=O)O [PIVALATE]

Further lines, the compound ahead of its results:

SMILES: O=C(O)CCC(=O)C(=O)O [ALPHA-KETOGLUTARIC ACID]
Activity [1]: is not an inhibitor [-]

SMILES: CCn1cc(C(=O)O)c(=O)c2cc(F)c(N3CCNCC3)cc21 [NORFLOXACIN]
Activity [5]: is not an inhibitor [-]

SMILES: C[C@@H]1CN(c2c(F)c(N)c3c(=O)c(C(=O)O)cn(C4CC4)c3c2F)C[C@H](C)N1 [SPARFLOXACIN]
Activity [7]: is not an inhibitor [-]
